Reference: patent US8633204B2 (Pfizer Inc., priority 2006, dated 2014)

Each molecule was assayed against PI3-Kα (Mus musculus (Mouse), UniProt P42337) (assay: PI3-Kα Biochemical Assay (fluorescence polarization kinase assay)). Conditions: not given.
Procedure: Compounds of the present invention were evaluated for potency against PI3-Kα using an in vitro kinase assay. PI3-Kα activity is measured in vitro by determining the level of phosphorylation of the substrate PI(4,5)P2. The formation of product PI(3,4,5)P3 is monitored by binding to the Grip1 PH domain in a ligand displacement fluorescence polarization (FP) assay, in which the TAMRA-labeled PI(3,4,5)P3 complexed with Grip1 PH domain is displaced by PI(3,4,5)P3 formed in the PI3-Kα reaction resulting in a decrease in FP signal. Mouse PI3-Kα P110 and P85 subunits were co-expressed in insect cells and co-purified to homogeneity. PI(4,5)P2 were obtained from Cayman. TAMRA-labeled PI(3,4,5)P3 were from Echelon, Grip1 PH domain from Dundee and other reagents were from Sigma.
All assays were performed in a Corning solid black 96-well half area plate using LJL Analyst (Molecular Devices) at room temperature. The assay buffer contained 50 mM HEPES, pH 7.4, 150 mM NaCl, 5 mM DTT, and 0.05% CHAPS. Dry powder PI(4,5)P2 was dissolved in 50 mM TRIS, pH 8 to make 1 mM stock solution. The PI(4,5)P2 stock solution was then diluted in the assay buffer to 60 μM, and sonicated for 30 sec before use. To the assay plate, the following reagents were added in sequence: 10 μL of 60 μM PI(4,5)P2, 5 μL of 4 nM PI3-Kα, 2 μL of compound in 25% DMSO, 3 μL of mixture containing 200 μM ATP and 33 mM MgCl2. The final volume for the reaction was 20 μL. The reaction mixture was incubated at room temperature for 35 min. The reaction was then stopped by 20 μL of 20 mM EDTA. […] The FP signal was allowed to develop for 40 min before reading on a LJL analyst at excitation 535 nm and emission 580 nm.
The percentage of inhibition was calculated based on the following equation % inhibition=[1−(FPcompound−FPmax)/(FPmin−FPmax)]×100, where FPcompound is the FP reading at a given compound concentration, FPmin is the FP signal of the PI3-Kα reaction in the absence of a compound, and FPmax is the background FP signal in the absence of PI3-Kα and a compound. The IC50 was determined by fitting the FP signal vs. compound concentration to a sigmoidal dose response equation using GraphPad Prism curve fitting program.

Chain of PI3-Kα (P42337 whole entry, the tested form may be a part): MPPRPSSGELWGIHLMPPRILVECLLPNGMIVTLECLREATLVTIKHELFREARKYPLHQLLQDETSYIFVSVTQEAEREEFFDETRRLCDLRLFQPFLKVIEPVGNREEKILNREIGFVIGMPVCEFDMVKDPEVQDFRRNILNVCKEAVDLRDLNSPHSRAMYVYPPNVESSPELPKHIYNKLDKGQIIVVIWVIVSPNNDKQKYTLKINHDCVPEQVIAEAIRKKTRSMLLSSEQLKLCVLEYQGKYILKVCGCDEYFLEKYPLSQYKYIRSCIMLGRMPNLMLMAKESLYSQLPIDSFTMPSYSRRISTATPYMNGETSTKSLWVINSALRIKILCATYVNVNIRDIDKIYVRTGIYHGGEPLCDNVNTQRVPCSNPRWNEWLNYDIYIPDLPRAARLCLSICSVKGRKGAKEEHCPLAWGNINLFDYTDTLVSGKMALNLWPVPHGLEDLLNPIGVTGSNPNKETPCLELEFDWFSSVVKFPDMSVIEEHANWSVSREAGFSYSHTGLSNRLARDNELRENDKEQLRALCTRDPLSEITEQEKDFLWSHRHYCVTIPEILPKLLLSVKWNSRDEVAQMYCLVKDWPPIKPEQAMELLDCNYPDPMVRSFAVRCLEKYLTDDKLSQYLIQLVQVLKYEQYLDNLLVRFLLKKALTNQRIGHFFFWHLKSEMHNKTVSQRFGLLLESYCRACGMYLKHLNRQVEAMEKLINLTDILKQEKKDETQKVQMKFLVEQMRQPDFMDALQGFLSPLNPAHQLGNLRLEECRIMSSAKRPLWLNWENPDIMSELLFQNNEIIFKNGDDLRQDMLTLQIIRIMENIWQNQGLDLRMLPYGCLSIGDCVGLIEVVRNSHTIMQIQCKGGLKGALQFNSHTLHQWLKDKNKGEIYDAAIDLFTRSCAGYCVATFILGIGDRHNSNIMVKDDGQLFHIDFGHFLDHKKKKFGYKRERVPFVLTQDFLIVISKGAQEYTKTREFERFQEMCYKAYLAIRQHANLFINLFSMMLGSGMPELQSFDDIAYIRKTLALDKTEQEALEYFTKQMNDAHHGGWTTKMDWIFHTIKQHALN
Chain of PI3-Kα (P26450 whole entry partner, the tested form may be a part): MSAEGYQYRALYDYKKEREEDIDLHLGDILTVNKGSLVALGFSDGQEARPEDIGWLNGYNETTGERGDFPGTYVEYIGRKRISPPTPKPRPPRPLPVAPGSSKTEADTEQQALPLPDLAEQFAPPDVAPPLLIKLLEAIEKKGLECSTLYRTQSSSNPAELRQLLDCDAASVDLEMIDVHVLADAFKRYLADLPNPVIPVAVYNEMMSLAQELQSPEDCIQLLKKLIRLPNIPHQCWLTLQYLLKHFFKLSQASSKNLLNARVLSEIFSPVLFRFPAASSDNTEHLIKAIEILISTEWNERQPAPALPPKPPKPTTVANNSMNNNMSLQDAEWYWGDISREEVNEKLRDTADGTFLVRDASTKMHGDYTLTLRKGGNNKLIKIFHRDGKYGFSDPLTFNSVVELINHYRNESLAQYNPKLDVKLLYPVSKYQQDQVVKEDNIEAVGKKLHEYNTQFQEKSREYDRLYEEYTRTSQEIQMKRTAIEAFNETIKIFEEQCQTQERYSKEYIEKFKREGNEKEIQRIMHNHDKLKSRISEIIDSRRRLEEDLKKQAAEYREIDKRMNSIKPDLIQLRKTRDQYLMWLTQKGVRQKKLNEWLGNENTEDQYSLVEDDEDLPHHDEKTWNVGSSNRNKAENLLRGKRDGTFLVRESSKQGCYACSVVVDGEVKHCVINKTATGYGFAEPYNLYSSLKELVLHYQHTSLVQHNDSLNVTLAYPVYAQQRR

| Compound | IC50 [nM] |
| --- | --- |
| CCN(CC)C(=O)OCn1cc(-c2cc3c(C)nc(N)nc3n(C(C)C)c2=O)nn1 [Compound 263, (4-(2-Amino-8-isopropyl-4-methyl-7-oxo-7,8-dihydropyrido[2,3-d]pyrimidin-6-yl)-1H-1,2,3-triazol-1-yl)methyl diethylcarbamate] | 3300 |
| Cc1nc(N)nc2c1cc(-c1cccc(Cl)n1)c(=O)n2C1CCCC1 [Compound 231, 2-Amino-6-(6-chloro-pyridin-2-yl)-8-cyclopentyl-4-methyl-8H-pyrido[2,3-d]pyrimidin-7-one] | 170 |
| Cc1nc(N)nc2c1cc(-c1cnn(CCO)c1)c(=O)n2C1CCCC1 [Compound 106, 2-Amino-8-cyclopentyl-6-(1-(2-hydroxyethyl)-1H-pyrazol-4-yl)-4-methylpyrido[2,3-d]pyrimidin-7(8H)-one] | 45 |
| COc1ccc(-c2cc3c(C)nc(N)nc3n(C3CCCC3)c2=O)cc1F [Compound 262, 2-amino-8-cyclopentyl-6-(3-fluoro-4-methoxyphenyl)-4-methylpyrido[23-d]pyrimidin-7(8H)-one] | 15 |
| COc1ccc(-c2cc3c(C)nc(N)nc3n(N3CCCC3)c2=O)cn1 [Compound 195, 2-amino-6-(6-methoxypyridin-3-yl)-4-methyl-8-(pyrrolidin-1-yl)pyrido[2,3-d]pyrimidin-7(8H)-one] | 23 |
| Cc1nc(N)nc2c1cc(-c1cn[nH]c1)c(=O)n2C1CC1 [Compound 211, 2-amino-8-cyclopropyl-4-methyl-6-(1H-pyrazol-4-yl)pyrido[2,3-d]pyrimidin-7(8H)-one] | 78 |
| Cc1nc(N)nc2c1cc(-c1cn[nH]c1)c(=O)n2N1CCCC1 [Compound 193, 2-Amino-4-methyl-6-(1H-pyrazol-4-yl)-8-(pyrrolidin-1-yl)pyrido[2,3-d]pyrimidin-7(8H)-one] | 28 |
| CCn1nccc1NC(=O)c1cc2c(C)nc(N)nc2n(C(C)C)c1=O [Compound 280, 2-amino-N-(1-ethyl-1H-pyrazol-5-yl)-8-isopropyl-4-methyl-7-oxo-7,8-dihydropyrido[2,3-d]pyrimidine-6-carboxamide] | 3.9 |
| COc1ncc(-c2cc3c(C)nc(N)nc3n([C@H]3CC[C@@H](OCCO)CC3)c2=O)cc1F [Compound 294, 2-amino-6-(5-fluoro-6-methoxypyridin-3-yl)-8-[cis-4-(2-hydroxyethoxy)cyclohexyl]-4-methylpyrido[2,3-d]pyrimidin-7(8H)-one] | 2.6 |
| COc1ccc(-c2cc3c(C)nc(N)nc3n(C3CC3)c2=O)cn1 [Compound 212, 2-amino-8-cyclopropyl-6-(6-methoxypyridin-3-yl)-4-methylpyrido[2,3-d]pyrimidin-7(8H)-one] | 56 |
| COc1ncc(-c2cc3c(C)nc(N)nc3n(C3CCOCC3)c2=O)cc1F [Compound 265, 2-amino-6-(5-fluoro-6-methoxypyridin-3-yl)-4-methyl-8-(tetrahydro-2H-pyran-4-yl)pyrido[2,3-d]pyrimidin-7(8H)-one] | 1.43 |

These molecules were tested on PI3-K in BT20 cells (phosphorylation of AKT at serine 473) (assay: PI3-Kα Cellular Assay (AKT Ser473 phosphorylation ELISA in BT20 cells)). Conditions: Homo sapiens, BT-20, pAKT Ser473 ELISA, 1 hour incubation.
Assay type: cell-based, human
Procedure: Compounds of the present invention were evaluated for potency against PI3-K using a cellular assay as follows.
Healthy growing human breast cancer cells BT20 (PI3K mutated) are used for the assay. BT20 cells are grown in 10% FBS+GLN (1:100)+PS (1:100)+1 mM Sodium Pyruvate+0.1 mM Sodium Bicarbonate+Non-Essential Amino Acids Solution (1:100) MEM medium (MEM+all). […] The cells are re-suspended in 10% FBS MEM all and are centrifuged down at 1400 rpm for 5 minutes. The cells are re-suspended in 0.5% FBS MEM all and are counted on a cell counter. The cells are seeded at 25,000 cells/well in volume of 100 μL/well in 0.5% FBS MEM all in a 96 well flat-bottom plate. The negative control wells receive only 100 μL of 0.5% FBS MEM all medium without cells. The plate is incubated overnight in a cell culture incubator with 5% CO2 at 37° C.
On day 2, testing compounds are prepared in 0.5% FBS MEM all medium and serially diluted at 1:3 for 11 test concentrations. Each concentration of the compounds is tested in duplicate. The compound solutions are added at 25 μL/well to the corresponded wells in cell plate, and 25 μL/well of the vehicle (0.5% DMSO in 0.5% FBS MEM all) is added to the negative control wells (no cells) and the positive control wells (cells without compounds). The plate is incubated for 1 hour in a cell culture incubator with 5% CO2 at 37° C. After 1 hour of incubation, the medium is removed, 100 μL/well of cell lysis buffer is added into the cell plate, and shake for 15 minutes at room temperature. […] After 1 hour, empty the contents of the wells, wash the plate 4 times with the wash buffer, and add 100 μL of TMB substrate solution (catalog #T0440, Sigma) into each well, and incubate with gentle shaking at room temperature for […]. After 15 minutes of color development, add 100 μL of stop solution (1N hydrochloric acid) to each well, and read the plate at 450 nm on ELISA plate reader.

| Compound | IC50 [nM] |
| --- | --- |
| CCN(CC)C(=O)OCn1cc(-c2cc3c(C)nc(N)nc3n(C(C)C)c2=O)nn1 [Compound 263, (4-(2-Amino-8-isopropyl-4-methyl-7-oxo-7,8-dihydropyrido[2,3-d]pyrimidin-6-yl)-1H-1,2,3-triazol-1-yl)methyl diethylcarbamate] | 10000 |
| Cc1nc(N)nc2c1cc(-c1cccc(Cl)n1)c(=O)n2C1CCCC1 [Compound 231, 2-Amino-6-(6-chloro-pyridin-2-yl)-8-cyclopentyl-4-methyl-8H-pyrido[2,3-d]pyrimidin-7-one] | 3450 |
| Cc1nc(N)nc2c1cc(-c1cnn(CCO)c1)c(=O)n2C1CCCC1 [Compound 106, 2-Amino-8-cyclopentyl-6-(1-(2-hydroxyethyl)-1H-pyrazol-4-yl)-4-methylpyrido[2,3-d]pyrimidin-7(8H)-one] | 495 |
| COc1ccc(-c2cc3c(C)nc(N)nc3n(C3CCCC3)c2=O)cc1F [Compound 262, 2-amino-8-cyclopentyl-6-(3-fluoro-4-methoxyphenyl)-4-methylpyrido[23-d]pyrimidin-7(8H)-one] | 45.9 |
| CNc1nc(C)c2cc(-c3ccc(OC)nc3)c(=O)n(CCN)c2n1 [Compound 239, 8-(2-Amino-ethyl)-6-(6-methoxy-pyridin-3-yl)-4-methyl-2-methylamino-8H-pyrido[2,3-d]pyrimidin-7-one] | 1270 |
| Cc1nc(N)nc2c1cc(-c1cnc3ccccc3c1)c(=O)n2[C@H]1CC[C@@H](OCCO)CC1 [Compound 295, 2-amino-8-[cis-4-(2-hydroxyethoxy)cyclohexyl]-4-methyl-6-quinolin-3-ylpyrido[2,3-d]pyrimidin-7(8H)-one] | 96.2 |
| Cc1nc(N)nc2c1cc(-c1cn[nH]c1)c(=O)n2[C@@H]1CC[C@H](O)C1 [Compound 162, 2-amino-8-[(1R,3S)-3-hydroxycyclopentyl]-4-methyl-6-(1H-pyrazol-4-yl)pyrido[2,3-d]pyrimidin-7(8H)-one] | 47.2 |
| Cc1nc(N)nc2c1cc(Br)c(=O)n2[C@H]1CC[C@H](O)CC1 [Compound 157, 2-amino-6-bromo-8-(trans-4-hydroxycyclohexyl)-4-methylpyrido[2,3-d]pyrimidin-7(8H)-one] | 305 |
| CNc1nc(C)c2cc(-c3ccc(OC)nc3)c(=O)n([C@H]3CC[C@H](O)CC3)c2n1 [Compound 274, 8-(trans-4-hydroxycyclohexyl)-6-(6-methoxypyridin-3-yl)-4-methyl-2-(methylamino)pyrido[2,3-d]pyrimidin-7(8H)-one] | 7.81 |
| COc1ncc(-c2cc3c(C)nc(N)nc3n([C@H]3CC[C@H](OCC(N)=O)CC3)c2=O)cn1 [Compound 311, 2-({trans-4-[2-amino-6-(2-methoxypyrimidin-5-yl)-4-methyl-7-oxopyrido[2,3-d]pyrimidin-8(7H)-yl]cyclohexyl}oxy)acetamide] | 51.9 |
| Cc1nc(N)nc2c1cc(-c1ccc(N(C)C)nc1)c(=O)n2[C@H]1CC[C@@H](O)CC1 [Compound 181, 2-amino-6-[6-(dimethylamino)pyridin-3-yl]-8-(cis-4-hydroxycyclohexyl)-4-methylpyrido[2,3-d]pyrimidin-7(8H)-one] | 17.6 |
| Cc1nc(N)nc2c1cc(-c1cn[nH]c1)c(=O)n2CC1CCCO1 (centres unmarked) [Compound 223, 2-amino-4-methyl-6-(1H-pyrazol-4-yl)-8-((tetrahydrofuran-2-yl)methyl)pyrido[2,3-d]pyrimidin-7(8H)-one] | 249 |
| CCNc1nc(C)c2cc(CCC(=O)Nc3ccccn3)c(=O)n(C3CCCC3)c2n1 [Compound 122, 3-[8-cyclopenlyl-2-(ethylamino)-4-methyl-7-oxo-7,8-dihydropyrido[2,3-d]pyrimidin-6-yl]-N-pyridin-2-ylpropanamide] | 10000 |
| Cc1nc(N)nc2c1cc(-c1cnc3ccccc3c1)c(=O)n2[C@H]1CC[C@H](OCCO)CC1 [Compound 289, 2-amino-8-(trans-4-(2-hydroxyethoxy)cyclohexyl]-4-methyl-6-quinolin-3-ylpyrido[2,3-d]pyrimidin-7(8H)-one] | 29.5 |
| CCNc1nc(C)c2cc(CCC(N)=O)c(=O)n(C3CCCC3)c2n1 [Compound 118, 3-[8-cyclopentyl-2-(ethylamino)-4-methyl-7-oxo-7,8-dihydropyrido[2,3-d]pyrimidin-6-yl]propanamide] | 8370 |
| Cc1nc(N)nc2c1cc(Br)c(=O)n2[C@@H]1CC[C@H](O)C1 [Compound 160, 2-amino-6-bromo-8-[(1R,3S)-3-hydroxycyclopentyl]-4-methylpyrido[2,3-d]pyrimidin-7(8H)-one] | 1040 |
| Cc1nc(N)nc2c1cc(-c1cccnc1N)c(=O)n2C1CCCC1 [Compound 125, 2-amino-6-(2-aminopyridin-3-yl)-8-cyclopentyl-4-methylpyrido[2,3-d]pyrimidin-7(8H)-one] | 9010 |
| COc1ccc(-c2cc3c(C)nc(N)nc3n([C@H]3CC[C@H](OCC(N)=O)CC3)c2=O)cn1 [Compound 309, 2-({trans-4-[2-amino-6-(6-methoxypyridin-3-yl)-4-methyl-7-oxopyrido[2,3-d]pyrimidin-8(7H)-yl]cyclohexyl}oxy)acetamide] | 19.3 |
